From ChEMBL document CHEMBL1909046, “DrugMatrix in vitro pharmacology data”

Experiments:
[1] = target: T1, Alpha-1B adrenergic receptor (Rattus norvegicus, UniProt P15823); test: DRUGMATRIX: Alpha-1B adrenergic receptor radioligand binding (ligand: prazosin); format: cell membranes, Wistar, Liver, Membrane; settings: Not Active = under 50% inhibition at 10 µM
T1 sequence (P15823 whole entry): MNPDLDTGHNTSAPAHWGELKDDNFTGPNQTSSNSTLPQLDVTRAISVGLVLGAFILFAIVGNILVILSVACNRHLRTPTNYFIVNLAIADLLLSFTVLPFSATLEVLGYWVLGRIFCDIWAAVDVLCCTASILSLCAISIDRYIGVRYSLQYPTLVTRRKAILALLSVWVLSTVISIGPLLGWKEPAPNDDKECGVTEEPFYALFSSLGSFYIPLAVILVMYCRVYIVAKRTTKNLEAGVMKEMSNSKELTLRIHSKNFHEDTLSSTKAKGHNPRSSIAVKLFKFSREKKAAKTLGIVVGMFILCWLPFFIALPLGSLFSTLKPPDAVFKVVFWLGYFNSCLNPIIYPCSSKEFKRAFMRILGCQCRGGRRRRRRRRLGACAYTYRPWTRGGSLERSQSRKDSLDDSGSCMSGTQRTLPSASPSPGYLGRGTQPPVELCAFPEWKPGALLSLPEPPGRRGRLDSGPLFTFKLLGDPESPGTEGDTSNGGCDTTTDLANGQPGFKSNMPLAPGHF

[2] = DRUGMATRIX: Glutamate, AMPA radioligand binding (ligand: [3H] AMPA); format: cell membranes, Rattus norvegicus, Wistar, Cerebral cortex, Membrane; settings: Not Active = under 50% inhibition at 10 µM
Carbonic anhydrase 2 = Carbonic anhydrase 2 (Homo sapiens, UniProt P00918); test: DRUGMATRIX: Carbonic Anhydrase II enzyme inhibition (substrate: 4-Nitrophenyl acetate (4-NPA)); format: tissue-based, Erythrocyte; settings: erythrocyte; Not Active = under 50% inhibition at 10 µM
Glucocorticoid receptor = target: T2, Glucocorticoid receptor (Homo sapiens, UniProt P04150); settings: hela s3; also: in other assays of this panel Not Active means under 50% inhibition at 10 µM
T2 sequence (P04150 whole entry): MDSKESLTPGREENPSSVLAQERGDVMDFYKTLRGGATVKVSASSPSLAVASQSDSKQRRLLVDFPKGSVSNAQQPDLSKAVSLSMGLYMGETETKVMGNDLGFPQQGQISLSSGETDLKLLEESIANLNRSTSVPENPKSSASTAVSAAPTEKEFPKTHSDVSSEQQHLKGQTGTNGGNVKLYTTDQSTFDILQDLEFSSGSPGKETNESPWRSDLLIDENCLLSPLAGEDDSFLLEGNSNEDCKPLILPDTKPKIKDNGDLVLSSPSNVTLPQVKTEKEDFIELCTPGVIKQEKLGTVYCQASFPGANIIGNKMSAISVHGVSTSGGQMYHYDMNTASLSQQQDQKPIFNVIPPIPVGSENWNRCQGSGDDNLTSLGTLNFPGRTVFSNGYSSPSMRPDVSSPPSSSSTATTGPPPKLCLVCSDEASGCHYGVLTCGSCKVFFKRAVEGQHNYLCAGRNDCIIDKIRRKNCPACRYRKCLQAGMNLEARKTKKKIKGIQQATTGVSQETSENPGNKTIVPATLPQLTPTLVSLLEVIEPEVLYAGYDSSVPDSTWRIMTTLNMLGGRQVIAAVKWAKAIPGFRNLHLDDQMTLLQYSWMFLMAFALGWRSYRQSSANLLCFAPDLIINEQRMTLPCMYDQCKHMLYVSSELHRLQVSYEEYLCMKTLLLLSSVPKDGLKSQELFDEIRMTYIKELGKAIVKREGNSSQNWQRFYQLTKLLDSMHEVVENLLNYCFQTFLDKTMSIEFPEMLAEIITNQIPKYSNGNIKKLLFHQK

Adenosine receptor A2a = Adenosine receptor A2a (Homo sapiens, UniProt P29274); test: DRUGMATRIX: Adenosine A2A radioligand binding (ligand: […]); format: cell membranes, HEK293, Membrane; settings: hek293; Not Active = under 50% inhibition at 10 µM
Sequence of Adenosine receptor A2a (P29274 whole entry): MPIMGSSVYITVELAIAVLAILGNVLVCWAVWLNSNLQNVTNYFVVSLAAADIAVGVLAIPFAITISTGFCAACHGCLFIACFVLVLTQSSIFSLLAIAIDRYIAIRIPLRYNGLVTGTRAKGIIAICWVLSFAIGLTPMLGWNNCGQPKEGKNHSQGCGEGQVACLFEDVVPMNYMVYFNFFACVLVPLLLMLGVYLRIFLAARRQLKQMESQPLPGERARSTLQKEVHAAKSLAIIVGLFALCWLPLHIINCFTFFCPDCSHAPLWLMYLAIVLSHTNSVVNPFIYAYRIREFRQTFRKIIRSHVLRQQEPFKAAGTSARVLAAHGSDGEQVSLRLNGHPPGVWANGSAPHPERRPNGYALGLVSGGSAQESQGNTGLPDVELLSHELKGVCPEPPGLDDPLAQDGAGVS

Substance-P receptor = Substance-P receptor (Homo sapiens, UniProt P25103); format: cell membranes, CHO, Membrane; settings: cho; also: in other assays of this panel Not Active means under 50% inhibition at 10 µM
Sequence of Substance-P receptor (P25103 whole entry): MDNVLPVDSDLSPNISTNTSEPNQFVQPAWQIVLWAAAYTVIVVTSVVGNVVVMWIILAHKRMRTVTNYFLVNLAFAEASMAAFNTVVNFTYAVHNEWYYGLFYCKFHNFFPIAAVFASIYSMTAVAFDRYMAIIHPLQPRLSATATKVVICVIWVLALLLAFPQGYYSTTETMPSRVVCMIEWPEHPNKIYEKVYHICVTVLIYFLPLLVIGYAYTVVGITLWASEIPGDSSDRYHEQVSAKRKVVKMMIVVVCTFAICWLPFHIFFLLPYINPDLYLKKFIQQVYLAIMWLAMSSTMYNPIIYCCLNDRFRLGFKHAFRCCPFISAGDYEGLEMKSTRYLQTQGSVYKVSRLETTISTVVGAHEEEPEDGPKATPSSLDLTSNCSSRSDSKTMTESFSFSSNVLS

Cytochrome P450 3A4 = Cytochrome P450 3A4 (Homo sapiens, UniProt P08684); settings: bti-tn-5b1-4; also: in other assays of this panel Not Active means under 50% inhibition at 10 µM
Sequence of Cytochrome P450 3A4 (P08684 whole entry): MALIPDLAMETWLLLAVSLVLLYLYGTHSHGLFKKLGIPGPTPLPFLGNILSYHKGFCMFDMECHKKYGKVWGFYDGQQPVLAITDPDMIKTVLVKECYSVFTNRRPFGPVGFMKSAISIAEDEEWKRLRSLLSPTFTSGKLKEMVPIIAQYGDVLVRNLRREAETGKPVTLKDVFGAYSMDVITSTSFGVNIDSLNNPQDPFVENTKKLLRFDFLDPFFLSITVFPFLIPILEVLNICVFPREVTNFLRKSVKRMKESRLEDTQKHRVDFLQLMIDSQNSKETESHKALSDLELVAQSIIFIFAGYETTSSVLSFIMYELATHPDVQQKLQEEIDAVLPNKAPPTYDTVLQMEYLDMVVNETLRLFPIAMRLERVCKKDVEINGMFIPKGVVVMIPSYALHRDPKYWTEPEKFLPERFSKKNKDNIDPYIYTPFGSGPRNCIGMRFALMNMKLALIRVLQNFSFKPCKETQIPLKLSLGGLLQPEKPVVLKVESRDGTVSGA

| SMILES | IC50 [1] | IC50 [2] | Ki [2] | IC50 (Carbonic anhydrase 2) | IC50 (Glucocorticoid receptor) | IC50 (Adenosine receptor A2a) | IC50 (Substance-P receptor) | IC50 (Cytochrome P450 3A4) | Ki (Cytochrome P450 3A4) | IC50 ([1]; read-out: IC50) [nM] | Ki ([1]; read-out: Ki) [nM] |
| --- | --- | --- | --- | --- | --- | --- | --- | --- | --- | --- | --- |
| CCOc1nc2cccc(C(=O)O)c2n1Cc1ccc(-c2ccccc2-c2nnn[nH]2)cc1 | Not Active | Not Active | Not Active | Not Active | Not Active | Not Active | Not Active |  |  |  |  |
| COc1ccccc1N | Not Active | Not Active | Not Active | Not Active |  | Not Active | Not Active | Not Active | Not Active |  |  |
| Cc1c(O)cccc1C(=O)N[C@@H](CSc1ccccc1)[C@H](O)CN1C[C@H]2CCCC[C@H]2C[C@H]1C(=O)NC(C)(C)C | Not Active | Not Active | Not Active | Not Active |  | Not Active | Not Active |  |  |  |  |
| NC12CC3CC(CC(C3)C1)C2 [AMANTADINE] | Not Active | Not Active | Not Active | Not Active | Not Active | Not Active | Not Active |  |  |  |  |
| CC(C)c1c(C(=O)Nc2ccccc2)c(-c2ccccc2)c(-c2ccc(F)cc2)n1CC[C@@H](O)C[C@@H](O)CC(=O)O [ATORVASTATIN] | Not Active | Not Active | Not Active | Not Active | Not Active | Not Active | Not Active |  |  |  |  |
| COc1cc(OC)c(C(=O)CCCN2CCCC2)c(OC)c1 [BUFLOMEDIL] | Not Active | Not Active | Not Active | Not Active | Not Active | Not Active | Not Active |  |  |  |  |
| Cn1c(=O)c2c(ncn2C)n(C)c1=O [CAFFEINE] | Not Active | Not Active | Not Active | Not Active | Not Active |  | Not Active | Not Active | Not Active |  |  |
| ClC(Cl)(Cl)Cl [CARBON TETRACHLORIDE] | Not Active | Not Active | Not Active | Not Active |  | Not Active | Not Active | Not Active | Not Active |  |  |
| CC(C)NCC(O)c1ccccc1Cl (centres undefined) [CLORPRENALINE] | Not Active | Not Active | Not Active | Not Active |  | Not Active | Not Active | Not Active | Not Active |  |  |
| CC(C)C[C@H]1C(=O)N2CCC[C@H]2[C@]2(O)O[C@](NC(=O)[C@@H]3C=C4c5cccc6[nH]cc(c56)C[C@H]4N(C)C3)(C(C)C)C(=O)N12 [ERGOCRYPTINE] |  | Not Active | Not Active | Not Active | Not Active | Not Active | Not Active |  |  | 14 | 7.94 |
| C[C@]12CC[C@@H]3c4ccc(O)cc4CC[C@H]3[C@@H]1C[C@@H](O)[C@@H]2O [ESTRIOL] | Not Active | Not Active | Not Active | Not Active |  | Not Active | Not Active | Not Active | Not Active |  |  |
| C#C[C@]1(O)CC[C@H]2[C@@H]3CCC4=CC(=O)CC[C@]4(C)[C@H]3CC[C@@]21C [ETHISTERONE] | Not Active | Not Active | Not Active | Not Active |  | Not Active | Not Active | Not Active | Not Active |  |  |
| CC(O)(P(=O)(O)O)P(=O)(O)O [ETIDRONIC ACID] | Not Active | Not Active | Not Active | Not Active |  | Not Active | Not Active | Not Active | Not Active |  |  |
| CC(C)(C(=O)O)c1ccc(C(O)CCCN2CCC(C(O)(c3ccccc3)c3ccccc3)CC2)cc1 (centres undefined) [FEXOFENADINE] | Not Active | Not Active | Not Active | Not Active | Not Active | Not Active | Not Active |  |  |  |  |
| CC(=O)OCC(=O)[C@@]1(O)CC[C@H]2[C@@H]3CCC4=CC(=O)CC[C@]4(C)[C@@]3(F)[C@@H](O)C[C@@]21C [FLUDROCORTISONE ACETATE] | Not Active | Not Active | Not Active | Not Active |  | Not Active | Not Active | Not Active | Not Active |  |  |
| CCOC(=O)c1ncn2c1CN(C)C(=O)c1cc(F)ccc1-2 [FLUMAZENIL] | Not Active | Not Active | Not Active | Not Active |  | Not Active | Not Active | Not Active | Not Active |  |  |
| CC(=O)OCC(=O)[C@@]12OC(C)(C)O[C@@H]1C[C@H]1[C@@H]3C[C@H](F)C4=CC(=O)C=C[C@]4(C)[C@@]3(F)[C@@H](O)C[C@@]12C [FLUOCINONIDE] | Not Active | Not Active | Not Active | Not Active |  | Not Active | Not Active |  |  |  |  |
| Cc1ccc(C)c(OCCCC(C)(C)C(=O)O)c1 [GEMFIBROZIL] | Not Active | Not Active | Not Active | Not Active |  | Not Active | Not Active | Not Active | Not Active |  |  |
| CCCCC1=NC2(CCCC2)C(=O)N1Cc1ccc(-c2ccccc2-c2nnn[nH]2)cc1 [IRBESARTAN] | Not Active | Not Active | Not Active | Not Active |  | Not Active | Not Active | Not Active | Not Active |  |  |
| C[C@H]1COc2c(N3CCN(C)CC3)c(F)cc3c(=O)c(C(=O)O)cn1c23.C[C@H]1COc2c(N3CCN(C)CC3)c(F)cc3c(=O)c(C(=O)O)cn1c23.O [LEVOFLOXACIN] | Not Active | Not Active | Not Active | Not Active |  | Not Active | Not Active |  |  |  |  |
| CS(=O)(=O)Nc1ccc([N+](=O)[O-])cc1Oc1ccccc1 [NIMESULIDE] | Not Active | Not Active | Not Active | Not Active |  | Not Active | Not Active | Not Active | Not Active |  |  |
| NC(=O)N1c2ccccc2CC(=O)c2ccccc21 [OXCARBAZEPINE] | Not Active | Not Active | Not Active | Not Active |  | Not Active | Not Active | Not Active | Not Active |  |  |
| CCN(CC)CCNC(=O)c1ccc(N)cc1 [PROCAINAMIDE] | Not Active | Not Active | Not Active | Not Active |  | Not Active | Not Active | Not Active | Not Active |  |  |
| C[C@]12C=CC(=O)C=C1CC[C@H]1[C@@H]3C[C@@H](O)[C@](O)(C(=O)CO)[C@@]3(C)C[C@H](O)[C@@]12F [TRIAMCINOLONE] | Not Active | Not Active | Not Active | Not Active |  | Not Active | Not Active | Not Active | Not Active |  |  |
| CCN(C(C)=O)c1cccc(-c2ccnc3c(C#N)cnn23)c1 [ZALEPLON] | Not Active | Not Active | Not Active | Not Active |  | Not Active | Not Active | Not Active | Not Active |  |  |
